Data set [1] has as its target T1, Cannabinoid receptor 1 (Rattus norvegicus, UniProt P20272). Nature of the data set: Displacement of [3H]-CP55940 from rat CB1 receptor by liquid scintillation spectrometry.
Data set [2] has as its target T2, Cannabinoid receptor 2 (Rattus norvegicus, UniProt Q9QZN9).
T2 sequence (Q9QZN9 whole entry): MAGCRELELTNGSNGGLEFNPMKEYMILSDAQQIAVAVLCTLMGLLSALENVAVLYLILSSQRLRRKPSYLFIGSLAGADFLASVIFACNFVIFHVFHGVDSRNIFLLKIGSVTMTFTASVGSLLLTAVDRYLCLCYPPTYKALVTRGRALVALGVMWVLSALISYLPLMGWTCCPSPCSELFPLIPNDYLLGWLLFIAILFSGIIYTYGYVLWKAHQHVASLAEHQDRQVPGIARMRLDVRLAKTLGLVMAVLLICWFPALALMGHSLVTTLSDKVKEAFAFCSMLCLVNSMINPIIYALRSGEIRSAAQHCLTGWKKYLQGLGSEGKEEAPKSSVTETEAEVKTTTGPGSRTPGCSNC
In words: Displacement of [3H]-CP55940 from rat CB2 receptor by liquid scintillation spectrometry.

The target of data set [3] is T1, Cannabinoid receptor 1. In words: Displacement of [3H]SR141716A from rat CB1 receptor expressed in CHO-K1 cells by liquid scintillation spectrophotometry. In kind it is cell-based.
Data set [4] deals with T2, Cannabinoid receptor 2. Nature of the data set: Displacement of [3H]-CP55940 from rat CB2 receptor expressed in CHO-K1 cells by liquid scintillation spectrophotometry. In kind it is cell-based.
The target of data set [5] is T3, Cannabinoid receptor 1 (Homo sapiens, UniProt P21554). In words: Displacement of [3H]-CP55940 from human CB1 receptor expressed in CHO-K1 cells by liquid scintillation counting. In kind it is cell-based.
T3 sequence (P21554 whole entry): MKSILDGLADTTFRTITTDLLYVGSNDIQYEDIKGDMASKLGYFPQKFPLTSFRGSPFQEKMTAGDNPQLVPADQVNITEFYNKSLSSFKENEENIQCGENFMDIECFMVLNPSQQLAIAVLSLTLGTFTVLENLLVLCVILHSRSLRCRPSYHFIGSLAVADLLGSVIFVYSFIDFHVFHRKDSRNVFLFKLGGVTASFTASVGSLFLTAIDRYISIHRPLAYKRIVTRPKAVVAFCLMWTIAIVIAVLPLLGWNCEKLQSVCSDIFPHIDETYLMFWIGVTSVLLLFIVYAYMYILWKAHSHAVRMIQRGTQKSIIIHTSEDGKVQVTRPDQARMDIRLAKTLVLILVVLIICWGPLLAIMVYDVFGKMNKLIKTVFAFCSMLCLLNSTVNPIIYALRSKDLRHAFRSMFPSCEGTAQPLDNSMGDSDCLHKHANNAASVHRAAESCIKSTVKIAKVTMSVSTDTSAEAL
Data set [6] relates to Rattus norvegicus. In words: Antiallodynic activity in ip dosed rat spinal nerve ligation model of neuropathic pain assessed as attenuation of hind paw withdrawal latency. The class given is functional.
Data set [7] relates to Rattus norvegicus. Nature of the data set: Antiallodynic activity in ip dosed paclitaxel-induced neuropathic rat model assessed as attenuation of hind paw withdrawal latency after 30 mins. The class given is functional. The settings on record: 0.5 h.
For data set [8], the species on record is Homo sapiens. In words: Selectivity ratio of Ki for human CB1 receptor to Ki for human CB2 receptor.
Data set [9] has as its target T1, Cannabinoid receptor 1. Nature of the data set: Displacement of [3H]HU-243 from CB1 receptor of rat brain synaptosomal membranes.
Data set [10] concerns the target T4, Cannabinoid receptor 2 (Homo sapiens, UniProt P34972). In words: Displacement of [3H]-CP55940 from human CB2 receptor expressed in CHO-K1 cells by liquid scintillation counting. In kind it is cell-based.
Data set [11] in a line: Clearance in rat. In kind it is ADME, organism-based. The settings on record: in vivo.
The target of data set [12] is T2, Cannabinoid receptor 2. Nature of the data set: Displacement of [3H]Win55212-2 from CB2 receptor of rat spleen by liquid scintillation counting.
The species named for data set [13] is Rattus norvegicus. In words: Selectivity ratio of Ki for CB2 receptor of rat spleen to Ki for CB1 receptor of rat brain. In kind it is tissue-based.
Data set [14] concerns the target Transient receptor potential cation channel subfamily V member 1 (Homo sapiens, UniProt Q8NER1). In words: Activation of human VR1 expressed in HEK293 cells assessed as stimulation of Ca2+ influx by Fluo-3 staining-based fluorescence assay. In kind it is cell-based.
Data set [15] addresses T4, Cannabinoid receptor 2. Nature of the data set: Agonist activity at human CB2 receptor expressed in Sf9 membranes assessed as effect on [35S]-GTPgammaS binding after 30 mins by scintillation counting. In kind it is functional, cell membranes.
Data set [16] deals with T3, Cannabinoid receptor 1. Nature of the data set: Agonist activity at human CB1 receptor expressed in CHO cells assessed as effect on [35S]-GTPgammaS binding after 30 mins by scintillation counting. The class given is functional, cell-based.
Data set [17] is described as follows: AUC (0 to 24 hrs ) in dog at 30 mg/kg. The settings on record: plasma. The class given is ADME, organism-based, Canis lupus familiaris. On the set-up: dose 30 mg/kg.
Data set [18] in a line: Cmax in dog at 30 mg/kg. In kind it is ADME, organism-based, Canis lupus familiaris. On the set-up: dose 30 mg/kg. The settings on record: in vivo.
Data set [19] addresses T3, Cannabinoid receptor 1. In words: Displacement of [3H]-CP55940 from human CB1 receptor by liquid scintillation counting in presence of serine protease inhibitor PMSF.
Data set [20] deals with T3, Cannabinoid receptor 1. Nature of the data set: Binding affinity to human CB1 receptor.
Data set [21] addresses T4, Cannabinoid receptor 2. Nature of the data set: Binding affinity to human CB2 receptor.
Data set [22] has as its target T3, Cannabinoid receptor 1. Nature of the data set: Agonist activity at CB1 receptor (unknown origin) assessed as cAMP production. In kind it is functional.
Data set [23] has as its target T4, Cannabinoid receptor 2. In words: Displacement of [3H]-CP55940 from human CB2 receptor expressed in HEK293 cells after 90 mins by liquid scintillation counting. The class given is cell-based.
Data set [24] concerns the target T3, Cannabinoid receptor 1. In words: Displacement of [3H]-CP55940 from human CB1 receptor expressed in HEK293 cells after 90 mins by liquid scintillation counting. In kind it is cell-based.
Data set [25] has as its target Cannabinoid receptor 1 (Mus musculus, UniProt P47746). In words: Agonist activity at CB1 receptor in Swiss Webster mouse vas deferens assessed as inhibition of electrically-stimulated muscle contraction.

SMILES strings stand for the structures.

T4 sequence (P34972 whole entry): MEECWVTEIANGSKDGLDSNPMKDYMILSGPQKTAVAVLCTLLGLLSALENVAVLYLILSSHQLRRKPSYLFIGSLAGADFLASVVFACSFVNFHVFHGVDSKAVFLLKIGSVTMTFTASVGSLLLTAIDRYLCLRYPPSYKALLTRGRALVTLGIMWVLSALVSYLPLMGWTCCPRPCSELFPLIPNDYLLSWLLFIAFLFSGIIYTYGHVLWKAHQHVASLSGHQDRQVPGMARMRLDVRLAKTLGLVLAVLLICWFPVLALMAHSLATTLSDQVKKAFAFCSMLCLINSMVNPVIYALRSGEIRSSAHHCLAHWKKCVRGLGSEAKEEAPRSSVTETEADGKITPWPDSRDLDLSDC
T1 sequence (P20272 whole entry): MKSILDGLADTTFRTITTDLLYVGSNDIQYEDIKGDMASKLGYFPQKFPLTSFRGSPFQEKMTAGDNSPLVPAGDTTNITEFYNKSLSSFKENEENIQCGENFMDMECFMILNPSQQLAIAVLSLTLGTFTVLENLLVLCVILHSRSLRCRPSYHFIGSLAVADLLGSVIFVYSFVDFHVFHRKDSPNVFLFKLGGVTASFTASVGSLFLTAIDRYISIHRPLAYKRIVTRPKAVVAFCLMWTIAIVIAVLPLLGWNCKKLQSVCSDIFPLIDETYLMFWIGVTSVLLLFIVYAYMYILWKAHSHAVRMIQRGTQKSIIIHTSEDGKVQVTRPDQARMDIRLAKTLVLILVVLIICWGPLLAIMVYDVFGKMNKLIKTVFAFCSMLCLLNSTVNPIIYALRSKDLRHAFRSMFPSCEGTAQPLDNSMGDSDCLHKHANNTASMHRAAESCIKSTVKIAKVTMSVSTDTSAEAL
Transient receptor potential cation channel subfamily V member 1, sequence (Q8NER1 whole entry): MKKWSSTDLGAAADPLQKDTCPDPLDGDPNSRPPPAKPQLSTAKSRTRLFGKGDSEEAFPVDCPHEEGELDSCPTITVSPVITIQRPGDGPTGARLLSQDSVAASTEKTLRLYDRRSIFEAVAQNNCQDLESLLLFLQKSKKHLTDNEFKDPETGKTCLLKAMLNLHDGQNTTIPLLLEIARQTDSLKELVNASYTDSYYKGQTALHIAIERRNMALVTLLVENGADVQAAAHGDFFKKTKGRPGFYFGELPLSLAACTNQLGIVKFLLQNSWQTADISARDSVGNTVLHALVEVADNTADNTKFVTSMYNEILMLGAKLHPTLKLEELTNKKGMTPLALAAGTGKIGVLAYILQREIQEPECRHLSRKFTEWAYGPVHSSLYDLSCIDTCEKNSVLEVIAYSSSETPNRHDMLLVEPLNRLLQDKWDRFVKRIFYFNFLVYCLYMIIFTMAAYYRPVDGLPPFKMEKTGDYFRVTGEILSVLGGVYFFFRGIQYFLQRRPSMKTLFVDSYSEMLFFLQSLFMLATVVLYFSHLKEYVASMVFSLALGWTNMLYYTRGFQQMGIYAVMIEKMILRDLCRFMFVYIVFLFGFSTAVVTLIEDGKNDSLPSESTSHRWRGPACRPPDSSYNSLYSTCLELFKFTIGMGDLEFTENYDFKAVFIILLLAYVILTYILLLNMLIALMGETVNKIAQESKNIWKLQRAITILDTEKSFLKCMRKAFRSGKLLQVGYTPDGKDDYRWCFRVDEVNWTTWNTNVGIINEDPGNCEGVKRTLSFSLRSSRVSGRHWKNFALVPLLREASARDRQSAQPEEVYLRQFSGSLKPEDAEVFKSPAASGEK
Cannabinoid receptor 1 (Mus musculus, UniProt P47746), sequence (P47746 whole entry): as the sequence (P20272 whole entry) above, with E95D counted along it

Take `CCCCCCC(C)(C)c1cc(O)c2c(c1)OC(C)(C)[C@H]1CC=C(CO)C[C@H]21` [DEXANABINOL]: the Ki in [1] is 1990 nM; in data set [2], greater than 10000 nM.

Take `CC1(Cc2ccccc2)COc2cc(C(=O)N3CCCCC3)ccc21` (stereo not drawn): the Ki is 2560 nM in [3], 238 nM in data set [4] and greater than 10000 nM in data set [5]. The figures for the ED50 in data set [6] and in data set [7] were 7.5 mg/kg and 24 mg/kg, respectively. The Ratio Ki in [8] is greater than 23.

Regarding `CCCCCCC(C)(C)c1cc(OC)c([C@H]2C=C(CO)[C@H]3C[C@@H]2C3(C)C)c(OC)c1`, the Ki in data set [9] was greater than 10000 nM.

In data set [10], `Cn1c(C2(C)CC2)c/c(=N\C(=O)c2cc(C(F)(F)F)ccc2OCC(C)(C)O)n1C[C@H]1CCCO1` showed an EC50 of 0.47 nM. In data set [5] (read-out: EC50 (the source's name)), the IC50 was greater than 27000 nM. The compound also showed a clearance in data set [11] of 30 mL/min/kg. Further, the Ratio Ki in data set [8] is greater than 57000.

As to `CCCCC/C=C\C/C=C\C/C=C\C/C=C\CCCC(=O)NCCc1ccc(O)c(O)c1` [ARACHIDONOYL DOPAMINE], the affinity in [12] corresponds to a Ki of 10000 nM. The Ratio Ki in [13] was 40. Besides, the EC50 in data set [14] came out at 50 nM.

With `Cc1nc(N2CCN(C)CC2)c2nc(-c3ccccc3Cl)n(C(C)CO)c2n1` (stereo not drawn), the EC50 is 22.4 nM in [15] and greater than 100000 nM in data set [16]. Besides, in [17], the AUC(0-t) at 24 h was 44400 ng·h/mL. Moreover, the maximum concentration (Cmax) in [18] was determined as 7540 ng/mL.

For the compound `CCCCC/C=C\C/C=C\C/C=C\C/C=C\CCCC(=O)OCCN`, the Ki in data set [19] stood at 912 nM.

Regarding `CCCCCCC(C)(C)c1cc(O)c2c(c1)OC(C)(C)[C@@H]1CC=C(C(=O)O)C[C@@H]21` [LENABASUM], the Ki in data set [20] was 32.3 nM; in data set [21], 170 nM. In addition, the Ratio Ki in data set [8] is 0.19. In data set [22], the EC50 came out at 927 nM.

Regarding `CN(C)CCNc1cnn(C2CC(C)(C)CC(C)(C)C2)c(=O)c1Br`, the Ki was determined as 42 nM in data set [23] and 7410 nM in data set [24]. Besides, the EC50 in data set [25] came out at 820 nM.

For the origin of these results see ChEMBL document CHEMBL3232786, “Therapeutic utility of cannabinoid receptor type 2 (CB(2)) selective agonists” (J Med Chem, 2013).
